In brackets after ≈: the same amount, converted by molar mass. Read-outs that look alike come from different tables or passages of the source.
Key:
[1] = test system: HSV-1 (strain) McIntyre; assay: inhibition of cytopathic effect of HSV-1 strain McIntyre; type: cell-based, herpes simplex virus type 1; settings: Table 4, HSV-1 McIntyre, PRK cells; for EC50: Human alphaherpesvirus 1, read-out: MIC50
[2] = test system: Herpes simplex 2 (G); assay: inhibition of cytopathic effect of herpes simplex 2 (G); type: cell-based, herpes simplex virus type 2; settings: PRK cells; for EC50: Human alphaherpesvirus 2, PRK, read-out: MIC50
[3] = test system: HSV-1 (strain) TK^- C1101; assay: inhibition of cytopathic effect of HSV-1 TK- strain C1101; type: cell-based, herpes simplex virus type 1; settings: for EC50: Human alphaherpesvirus 1, PRK, read-out: MIC50
[4] = test system: Coxsackie B4; assay: inhibition of cytopathic effect of Coxsackie B4; type: cell-based; settings: Table 3, Vero B, HeLa cells; for EC50: Enterovirus B, B4, read-out: MIC50
[5] = test system: Moloney sarcoma; assay: inhibition of Moloney sarcoma virus; type: cell-based, Moloney mouse sarcoma virus; settings: Table 3, MO cells; for EC50: Mus musculus, read-out: MIC50
[6] = test system: Vesicular stomatitis; assay: microbe, parasite or virus in culture; type: cell-based; settings: for EC50: read-out: MIC50
[7] = test system: vaccinia virus (VV); type: cell-based; settings: PRK cells, average of two determinations
[8] = test system: Polio 1; assay: microbe, parasite or virus in culture; type: cell-based; settings: for EC50: HeLa, read-out: MIC50
[9] = test system: Sindbis; assay: inhibition of cytopathic effect of Sindbis; type: cell-based; settings: Table 3, Vero B cells; for EC50: read-out: MIC50
[10] = antimetabolic activity: incorporation of 3H-labeled precursors into primary rabbit kidney cells; settings: rabbit, prk cells
[11] = test system: Measles; assay: inhibition of cytopathic effect of measles; type: cell-based; settings: Table 3, Vero Flow cells; for EC50: Measles morbillivirus, read-out: MIC50
[12] = test system: HSV-2 (strain) Lyons; assay: inhibition of cytopathic effect of HSV-2 strain Lyons; type: cell-based, herpes simplex virus type 2; settings: Table 4, HSV-2 Lyons, PRK cells; for EC50: Human alphaherpesvirus 2, read-out: MIC50
[13] = test system: Vaccinia; assay: microbe, parasite or virus in culture; type: cell-based; settings: for EC50: Orthopoxvirus vaccinia, PRK, read-out: MIC50
[14] = test system: herpes simplex virus type 1 (HSV-1) (strain KOS); type: cell-based; settings: PRK cells
[15] = in vitro; settings: rabbit, prk cells
[16] = test system: Parainfluenza 3; assay: inhibition of cytopathic effect of parainfluenza 3; type: cell-based; settings: Table 3, Vero B cells; for EC50: read-out: MIC50
[17] = test system: HSV-2 (strain) 196; assay: inhibition of cytopathic effect of HSV-2 strain 196; type: cell-based, herpes simplex virus type 2; settings: Table 4, HSV-2 196, PRK cells; for EC50: Human alphaherpesvirus 2, read-out: MIC50
[18] = test system: Reovirus; assay: inhibition of cytopathic effect of reovirus; type: cell-based; settings: Table 3, Vero B cells; for EC50: Reovirus sp., read-out: MIC50
[19] = test system: HSV-1 (strain) F; assay: inhibition of cytopathic effect of HSV-1 strain F; type: cell-based, herpes simplex virus type 1; settings: Table 4, HSV-1 F, PRK cells; for EC50: Human alphaherpesvirus 1, read-out: MIC50
[20] = test system: Herpes simplex I (KOS); assay: inhibition of cytopathic effect of herpes simplex 1 (KOS); type: cell-based, herpes simplex virus type 1; settings: PRK cells; for EC50: Human alphaherpesvirus 1, read-out: MIC50
[21] = test system: PRK cells; settings: 72 h
[22] = test system: PRK cells; assay: antimetabolic activity: incorporation of 3H-labeled precursors into primary rabbit kidney cells
[23] = in vitro; settings: rabbit, prk cells; remark: listed apart in the source
[24] = test system: HSV-1 (strain) TK^- B2006; assay: inhibition of cytopathic effect of HSV-1 TK- strain B2006; type: cell-based, herpes simplex virus type 1; settings: Human alphaherpesvirus 1, PRK, read-out: MIC50
[25] = 48 h, 10 μg/ml (value in parentheses)
[26] = ID50 Leu incorporation, (3H-4,5)Leu
[27] = ID50 Urd incorporation, (3H-5)Urd
[28] = ID50 dThd incorporation, (3H-methyl) dThd
[29] = ID50 dUrd incorporation, (3H-1',2')dUrd

## Nc1ncnc2c1ncn2CC(O)COCP(=O)(O)O (racemic) [No. 2, (RS)-9-(2-hydroxy-3-phosphonylmethoxypropyl)-adenine]
[1]
  EC50: 10 to 15 µg/mL (≈ 33 to 49.5 µM)
[2]; Table 3
  EC50: 10 to 15 µg/mL (≈ 33 to 49.5 µM)
[2]; Table 4, HSV-2 G
  EC50: 10 to 15 µg/mL (≈ 33 to 49.5 µM)
[3]
  EC50: 7 µg/mL (≈ 23.1 µM)
[4]
  EC50: > 400 µg/mL
[5]
  EC50: 4.5 µg/mL (≈ 14.8 µM)
[6]
  EC50: > 400 µg/mL
[7]; 1 h, 100 μg/ml
  Titer of VV: 2.2 log10 PFU/ml
[7]; 24 h, 100 μg/ml
  Titer of VV: 2.2 log10 PFU/ml
[7]; [25]
  Titer of VV: < 1.3 log10 PFU/ml
[7]; 48 h, 100 μg/ml
  Titer of VV: 2.0 log10 PFU/ml
[7]; 72 h, 100 μg/ml
  Titer of VV: 1.8 log10 PFU/ml
[8]
  EC50: > 400 µg/mL
[9]
  EC50: > 400 µg/mL
[10]; [26]
  IC50: > 400 µg/mL
[10]; [27]
  IC50: > 400 µg/mL
[10]; [28]
  IC50: 280 µg/mL (≈ 923 µM)
[10]; [29]
  IC50: > 400 µg/mL
[11]
  EC50: > 20 µg/mL
[12]
  EC50: 10 to 15 µg/mL (≈ 33 to 49.5 µM)
[13]
  EC50: 0.3 to 1 µg/mL (≈ 0.989 to 3.3 µM)
[14]; 24 h, 100 μg/ml
  Titer of HSV-1: < 1.3 log10 PFU/ml
[14]; [25]
  Titer of HSV-1: < 6.0 log10 PFU/ml
[14]; 48 h, 100 μg/ml
  Titer of HSV-1: < 1.3 log10 PFU/ml
[15]
  MCC at 72 h: > 400 µg/mL
[16]
  EC50: > 200 µg/mL
[17]
  EC50: 10 to 15 µg/mL (≈ 33 to 49.5 µM)
[18]
  EC50: > 200 µg/mL
[19]
  EC50: 10 to 15 µg/mL (≈ 33 to 49.5 µM)
[20]; Table 3
  EC50: 2 to 10 µg/mL (≈ 6.6 to 33 µM)
[20]; Table 4, HSV-1 KOS
  MIC50: 2 to 10 µg/mL

## Nc1ncnc2c1ncn2CC1COP(=O)(O)CO1 (racemic) [No. 5, 2',3'-cyclic O-phosphonylmethyl ether of (RS)-9-(2,3-dihydroxypropyl)adenine]
[1]
  MIC50: 30 µg/mL (≈ 105 µM)
[2]; Table 3
  MIC50: 30 µg/mL (≈ 105 µM)
[21]
  MCC (minimal cytotoxic concentration): > 400 µg/mL
[3]; Table 4, HSV-1 TK^- C1101, PRK cells
  MIC50: 7 µg/mL (≈ 24.5 µM)
[4]
  MIC50: > 400 µg/mL
[5]
  MIC50: > 200 µg/mL
[6]; Table 3, HeLa, PRK cells
  MIC50: > 400 µg/mL
[7]; 1 h, 100 μg/ml
  Titer of VV: 1.6 log10 PFU/ml
[7]; 24 h, 100 μg/ml
  Titer of VV: 1.8 log10 PFU/ml
[7]; [25]
  Titer of VV: < 1.3 log10 PFU/ml
[7]; 48 h, 100 μg/ml
  Titer of VV: < 1.3 log10 PFU/ml
[7]; 72 h, 100 μg/ml
  Titer of VV: 1.5 log10 PFU/ml
[8]; Table 3, HeLa cells
  MIC50: > 400 µg/mL
[9]
  MIC50: > 400 µg/mL
[22]; (3H-1',2')dUrd
  ID50 dUrd incorporation: ≥ 360 µg/mL
[22]; (3H-4,5)Leu
  ID50 Leu incorporation: > 400 µg/mL
[22]; (3H-5)Urd
  ID50 Urd incorporation: > 400 µg/mL
[22]; (3H-methyl) dThd
  ID50 dThd incorporation: ≥ 390 µg/mL
[11]
  MIC50: > 100 µg/mL
[12]
  MIC50: 15 µg/mL (≈ 52.6 µM)
[13]; Table 3, PRK cells
  MIC50: 0.7 to 3.0 µg/mL
[14]; 24 h, 100 μg/ml
  Titer of HSV-1: < 1.3 log10 PFU/ml
[14]; [25]
  Titer of HSV-1: 6.04 log10 PFU/ml
[14]; 48 h, 100 μg/ml
  Titer of HSV-1: 2.8 log10 PFU/ml
[16]
  MIC50: > 400 µg/mL
[17]
  MIC50: 15 µg/mL (≈ 52.6 µM)
[18]
  MIC50: > 200 µg/mL
[19]
  MIC50: 30 µg/mL (≈ 105 µM)
[20]; Table 3
  MIC50: 30 µg/mL (≈ 105 µM)

## Nc1ncnc2c1ncn2C[C@H](O)COCP(=O)(O)O (racemic) [No. 3, (RS)-9-(2-hydroxy-3-phosphonylmethoxypropyl)-adenine]
[1]
  EC50: 150 µg/mL (≈ 495 µM)
[2]; Table 3
  EC50: 30 to 150 µg/mL (≈ 98.9 to 495 µM)
[2]; Table 4, HSV-2 G
  EC50: 30 to 150 µg/mL (≈ 98.9 to 495 µM)
[3]
  EC50: 30 to 40 µg/mL (≈ 98.9 to 132 µM)
[4]
  EC50: > 400 µg/mL
[6]
  EC50: > 400 µg/mL
[8]
  EC50: > 400 µg/mL
[9]
  EC50: > 400 µg/mL
[10]; [26]
  IC50: > 400 µg/mL
[10]; [27]
  IC50: > 400 µg/mL
[10]; [28]
  IC50: > 400 µg/mL
[10]; [29]
  IC50: > 400 µg/mL
[11]
  EC50: > 400 µg/mL
[12]
  EC50: 30 to 100 µg/mL (≈ 98.9 to 330 µM)
[13]
  EC50: 15 to 30 µg/mL (≈ 49.5 to 98.9 µM)
[15]
  MCC at 72 h: ≥ 200 µg/mL
[16]
  EC50: > 400 µg/mL
[17]
  EC50: 70 to 150 µg/mL (≈ 231 to 495 µM)
[18]
  EC50: > 400 µg/mL
[19]
  EC50: 70 to 150 µg/mL (≈ 231 to 495 µM)
[20]; Table 3
  EC50: 70 to 150 µg/mL (≈ 231 to 495 µM)
[20]; Table 4, HSV-1 KOS
  MIC50: 70 to 150 µg/mL

## Nc1ncnc2c1ncn2CCOCP(=O)(O)O [No. 6, 9-(2-phosphonylmethoxyethyl)adenine]
[1]
  EC50: 30 µg/mL (≈ 110 µM)
[2]; Table 3
  EC50: 7 µg/mL (≈ 25.6 µM)
[3]
  EC50: 7 µg/mL (≈ 25.6 µM)
[4]
  EC50: > 200 µg/mL
[5]
  EC50: 0.67 µg/mL (≈ 2.45 µM)
[6]
  EC50: > 400 µg/mL
[7]; 48 h, 100 μg/ml
  Titer of VV: 5.54 log10 PFU/ml
[8]
  EC50: > 400 µg/mL
[9]
  EC50: > 400 µg/mL
[11]
  EC50: > 400 µg/mL
[12]
  EC50: 15 µg/mL (≈ 54.9 µM)
[13]
  EC50: 300 µg/mL (≈ 1100 µM)
[14]; 24 h, 100 μg/ml
  Titer of HSV-1: < 1.3 log10 PFU/ml
[14]; [25]
  Titer of HSV-1: 6.36 log10 PFU/ml
[14]; 48 h, 100 μg/ml
  Titer of HSV-1: 3.34 log10 PFU/ml
[15]
  MCC at 72 h: ≥ 200 µg/mL
[16]
  EC50: > 400 µg/mL
[17]
  EC50: 15 µg/mL (≈ 54.9 µM)
[23]; ID50 Leu incorporation
  IC50: > 400 µg/mL
[23]; ID50 Urd incorporation
  IC50: > 400 µg/mL
[23]; ID50 dThd incorporation
  IC50: 242 µg/mL (≈ 886 µM)
[23]; ID50 dUrd incorporation
  IC50: 114 µg/mL (≈ 417 µM)
[18]
  EC50: > 400 µg/mL
[24]
  EC50: 3 µg/mL (≈ 11 µM)
[20]; Table 3
  EC50: 15 to 30 µg/mL (≈ 54.9 to 110 µM)
[20]; Table 4, HSV-1 KOS
  MIC50: 15 to 30 µg/mL
